Reference: ChEMBL document CHEMBL4477261, “Design, synthesis and evaluation of the multidrug resistance-reversing activity of pyridine acid esters of podophyllotoxin in human leukemia cells” (Bioorg Med Chem Lett, 2016)

Key:
K562/Adr = experiment: Antiproliferative activity against human K562/ADR cells after 72 hrs by CCK8 assay; type: functional, cell-based
K562 [1] = experiment: Antiproliferative activity against human K562 cells after 72 hrs by CCK8 assay; type: functional, cell-based; details: K562, 72 h
K562 [2] = experiment: Resistance factor, ratio of IC50 for human K562/ADR cells to IC50 for human K562 cells; type: functional

| Structure (SMILES) | IC50 (K562/Adr) [nM] | IC50 (K562 [1]) [nM] | Ratio IC50 (K562 [2]) |
| --- | --- | --- | --- |
| COc1cc([C@@H]2c3cc4c(cc3[C@H](OC(=O)c3ccc(Br)nc3)[C@H]3COC(=O)[C@H]23)OCO4)cc(OC)c1OC | 345 | 256 | 1.347 |
| COc1cc([C@@H]2c3cc4c(cc3[C@H](OC(=O)c3cc(Cl)ccn3)[C@H]3COC(=O)[C@H]23)OCO4)cc(OC)c1OC | 52 | 16 | 3.25 |
| COc1cc([C@@H]2c3cc4c(cc3[C@H](OC(=O)c3ccnc(Cl)c3)[C@H]3COC(=O)[C@H]23)OCO4)cc(OC)c1OC | 57 | 20 | 2.85 |
